How the values were obtained:
Format in all cases: cell-based
[1] = test system: human large intestine-derived organoid; experiment: Culture of organoids in presence of Matrigel and LATS kinase inhibitor; cell number by ATP (CellTiter-Glo 3D); settings: presence of Matrigel; 10 mM Lats-IN as printed; 7 days of culture; vs control without Lats-IN
Protocol: A human small intestine-derived organoid and a human large intestine-derived organoid were cultured in the presence of an inhibitor of LATS1 kinase and LATS2 kinase, Lats-IN-1 (CAS No. 1424635-83-5, hereinafter sometimes referred to as “Lats-IN” and also referred to as “TRULI”), and their dynamics were observed.
The human small intestine-derived organoid and the human large intestine-derived organoid used were those established from tissues derived from patients with gastrointestinal tumors who provided informed consent, in accordance with an ethical research plan approved by the Ethics Committee of the Keio University School of Medicine.
Each organoid was dissociated into single cells using TrypLE Express (Thermo Fisher Scientific Inc.) to obtain a cell suspension. […]
The cell proliferation was measured by measuring adenosine triphosphate (ATP) using a commercially available kit (product name “CellTiter-Glo 3D,” Promega Corporation).
The lower left panel of FIG. 2 is a photograph of a control (Ctrl) human large intestine-derived organoid cultured in the absence of Lats-IN, and the lower center panel of FIG. 2 is a photograph of a human large intestine-derived organoid cultured in the presence of Lats-IN. […] The vertical axis of the graph represents luminescence intensity (relative value) indicating the amount of ATP present.

[2] = test system: human small intestine-derived organoids; experiment: Immunostaining for localization of YAP and Ki67; settings: 10 μM Lats-IN; in both presence and absence of Matrigel; approximately 10% without Lats-IN
Protocol: Human small intestine-derived organoids and human large intestine-derived organoids were cultured in the absence and presence of Matrigel (registered trademark) and in the absence and presence of a LATS kinase inhibitor (final concentration: 10 μM) in the same manner as in Experimental Example 2. Subsequently, immunostaining was performed to confirm the localization of YAP. In addition, Ki67, a marker for cell proliferation, was detected to confirm proliferating cells.
The fields of view in the second, third, and fourth panels from the top correspond to the area enclosed in the square in the uppermost panel.
The fields of view in the second, third, and fourth panels from the top correspond to the area enclosed in the square in the uppermost panel. The scale bar represents 50 μm. […]
FIG. 7 is a graph summarizing the results of FIGS. 5 and 6. As a result, in both the presence and absence of Matrigel (registered trademark), in the absence of Lats-IN, YAP was localized in the cytoplasm, and when the number of Ki67-positive cells, which indicates cell proliferation, was counted, the percentage of Ki67-positive cells was approximately 10% of the total cells. In contrast, in both the presence and absence of Matrigel (registered trademark), in the presence of Lats-IN, the number of cells in which YAP was localized in the nucleus was counted. […]

[3] = test system: phosphorylated YAP (Ser127); experiment: Examination of phosphorylation of YAP by Western blotting in human small intestine-derived organoids; settings: 10 μM; in both presence and absence of Matrigel; compared to when Lats-IN is absent
Protocol: Human small intestine-derived organoids were cultured in the absence and presence of Matrigel (registered trademark) and in the absence and presence of a LATS kinase inhibitor (final concentration: 10 μM), and phosphorylation of YAP was confirmed by Western blotting.
In FIG. 4, “pYAP” indicates phosphorylated YAP, and “YAP” indicates total YAP (the sum of phosphorylated YAP and non-phosphorylated YAP). The antibody against phosphorylated YAP used was phospho-YAP (Ser127) (#4911, Cell Signaling Technology, Inc.). The antibody against total YAP used was total-YAP (#14074, Cell Signaling Technology, Inc.).

[4] = test system: phosphorylated ERK (Thr202/Tyr204); experiment: ERK phosphorylation by Western blotting in human small intestine-derived organoids; settings: absence of Matrigel; Lats-IN 10 μM
Protocol: Next, human small intestine-derived organoids were cultured in the absence or presence of Matrigel (registered trademark) and in the absence or presence of Lats-IN (final concentration: 10 μM), and ERK phosphorylated by EGF signaling was detected by Western blotting.
FIG. 17 presents graphs showing the results of Western blotting. In FIG. 17, “pERK” represents phosphorylated ERK, and “total ERK” represents total ERK (the sum of phosphorylated ERK and non-phosphorylated ERK). In addition, “pYAP” represents phosphorylated YAP, and “total YAP” represents total YAP (the sum of phosphorylated YAP and non-phosphorylated YAP). The antibody against phosphorylated ERK used was phospho-ERK (Thr202/Tyr204) (#4370, Cell Signaling Technology, Inc.). The antibody against total ERK used was total-ERK (#4695, Cell Signaling Technology, Inc.). The antibody against phosphorylated YAP used was phospho-YAP (Ser127) (#4911, Cell Signaling Technology, Inc.). The antibody against total YAP used was total-YAP (#14074, Cell Signaling Technology, Inc.).

[5] = test system: crypts collected from the human colon; experiment: Organoid establishment from human colon crypts dissociated into single cells; cell number by ATP; settings: absence of Matrigel, presence of TRULI; compared with presence of Matrigel
Protocol: Crypts were collected from the human colon and dissociated into single cells, then cultured in the presence of Matrigel (registered trademark) or in the absence of Matrigel (registered trademark) and in the presence of TRULI to establish organoids. In addition, the cell number in each organoid under the given conditions was measured by measuring ATP using a commercially available kit (product name “CellTiter-Glo 3D,” Promega Corporation).
The upper panel of FIG. 30 is a schematic view explaining an overview of this experimental example. The lower panel of FIG. 30 is a graph showing the results of measuring the proliferation of the organoids.

For `O=C(N=c1sccn1Cc1ccccc1)c1c[nH]c2ncccc12` [Lats-IN], the “cell proliferation (cell number per well, ATP luminescence)” value [1] was “significantly activated”, the “percentage of Ki67-positive cells” value [2] was ≥ 50 % of the total cells and the “phosphorylation of YAP” value [3] was “significantly suppressed”. The ERK phosphorylation [4] was “increased to a level equivalent to that in the presence of Matrigel” and the “cell proliferation (ATP) during organoid establishment” value [5] was “comparable to that observed in the presence of Matrigel”.

From US20250283049A1, “AGENT FOR CULTURING ORGANOID IN ABSENCE OF EXTRACELLULAR MATRIX” (KEIO UNIVERSITY, priority 2022, published 2025)
